We go through one compound from patent US9994536B2, “Compounds and methods of treating neurological disorders” (TORREY PINES INSTITUTE FOR MOLECULAR STUDIES, priority 2014, dated 2018).

The structures appear in SMILES notation.

For the experiment, the target named is TrkA (Homo sapiens, UniProt P04629). As to the kind of experiment: TrkA protein level immunoblot, NT2 cells, with or without PKC inhibitor. Type of experiment: cell-based. More on the design: endogenous in cells; host or cells: NT2 cells (stably expressing APP751). The protocol:
(3). THPI-244 increases TrkA receptor levels independent of protein kinase C (PKC). Next to clarify whether increased sAPPα levels depends on increased TrkA activation, NT2 cells were treated with THPI-244 with or without TrkA inhibitor (cat #GW 441756, Tocris Bioscience) at 50 nM final concentration. After 24 h, sAPPα levels were quantified from the conditioned medium by immunoblots. […] We next wanted to address whether increased TrkA protein levels by THPI-244 depends on PKC since PKC activators are well-known to induce sAPPα secretion (Etcheberringaray, R., et al., 2004, PNAS, 101, 11141-11146). NT2 cells were similarly treated with THPI-244 at 100 nM with or without PKC inhibitor (GF 109203, cat #0741, Tocris Bioscience) at 1.0 nM and TrkA protein levels were quantified by immunoblots as shown in FIG. 1.10 (right). […] Thus increased sAPPα level by THPI-244 is through upregulation of TrkA receptor independent of PKC.
(Immunoblotting shows a protein as a band on a membrane.)

Sequence of TrkA (P04629 33-796): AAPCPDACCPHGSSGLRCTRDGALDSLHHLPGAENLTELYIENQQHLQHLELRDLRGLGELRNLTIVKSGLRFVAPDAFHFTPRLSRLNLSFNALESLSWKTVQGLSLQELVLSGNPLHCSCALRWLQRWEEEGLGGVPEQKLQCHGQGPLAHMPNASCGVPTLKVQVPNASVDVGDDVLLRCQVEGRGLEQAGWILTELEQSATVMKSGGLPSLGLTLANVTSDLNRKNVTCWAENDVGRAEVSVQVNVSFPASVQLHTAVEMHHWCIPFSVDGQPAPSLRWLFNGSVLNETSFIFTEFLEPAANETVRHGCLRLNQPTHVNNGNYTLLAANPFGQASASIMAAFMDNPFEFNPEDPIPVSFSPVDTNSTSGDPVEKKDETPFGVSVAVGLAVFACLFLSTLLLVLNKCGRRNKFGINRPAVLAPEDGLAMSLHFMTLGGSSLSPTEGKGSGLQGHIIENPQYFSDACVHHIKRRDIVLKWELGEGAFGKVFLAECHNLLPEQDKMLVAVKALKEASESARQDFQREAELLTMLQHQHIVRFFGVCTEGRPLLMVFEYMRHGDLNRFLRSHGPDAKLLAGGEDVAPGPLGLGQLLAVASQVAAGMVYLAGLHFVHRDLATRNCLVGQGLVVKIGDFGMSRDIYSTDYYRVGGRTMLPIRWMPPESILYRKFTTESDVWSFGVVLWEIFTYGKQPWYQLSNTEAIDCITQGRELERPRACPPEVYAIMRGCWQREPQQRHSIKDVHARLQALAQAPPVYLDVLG

Take `O=C(Cc1ccccc1)N[C@H](CNc1nc(CN2CCN(C(=O)Cc3ccccc3)CC2)cs1)c1ccccc1` [THPI-244]: the TrkA protein level by setting is: (THPI-244 100 nM) 197%; (THPI-244 100 nM plus PKC inhibitor GF 109203 1.0 nM) 192%.
